≈ marks a conversion by molar mass, not a printed value. Structures can show the parent of a compound that is named as a salt. Where two headings read alike, the source gives them in different places.
Assays:
[1] = chemical stability on storage / in solution; format: physicochemical
[2] = molecular target: HIV-1 reverse transcriptase (Human immunodeficiency virus type 1 group M subtype B, UniProt P04585); assay: cell-free HIV-1 RT assay with artificial homopolymeric template/primer and [3H]dNTP; format: biochemical; details: for inhibition of incorporation of [3H]dATP in poly rU/oligo dA / inhibition of incorporation of [3H]dCTP in poly rI/oligo dC: 11a and 11b at 200 μg/mL
Protocol: To prepare the template/primers for the RT experiments, 0.15 mM poly(U), poly(A), and poly(I) were mixed with an equal volume of 0.0375 mM oligo(dA), oligo(dT), and oligo(dC), respectively. The final concentrations of the templates in the RT reaction mixture were 0.015 mM. The reaction mixture (50 μl) contained 50 mM Tris.HCl (pH 7.8), 5 mM dithiothreitol, 300 mM glutathione, 500 μM EDTA, 150 mM KCl, 5 mM MgCl2, 1.25 μg of bovine serum albumin, an appropriate concentration of labeled (tritiated) substrate dTTP, dCTP, or dATP (2 μCi/assay), a fixed concentration of the template/primer poly(A).oligo(dT) (0.015 mM), poly(I).oligo(dC) (0.015 mM), and poly(U).oligo(dA) (0.015 mM), 0.06% Triton X-100, 10 μl of inhibitor solution (containing various concentrations of the compounds), and 1 μl of the RT preparation. The reaction mixtures were incubated at 37° C. for 30 min, at which time 100 μl of yeast RNA (1 mg/ml) and 1 ml of Na4P2O7 (0.02 M) in trichloroacetic acid (5% v/v) were added. The solutions were kept on ice for 30 min, after which the acid-insoluble material was washed and analyzed for radioactivity.

HIV-RT = HIV-RT (Human immunodeficiency virus type 1 group M subtype B, UniProt P04585); details: cell-free HIV-RT assay, literature, not a direct comparison; cited from earlier work
[3] = IC50, HIV-RT catalysed incorporation of [3H]dATP / polyrU.dA, substrate [3H]dATP, template/primer poly rU.oligo dA
[4] = IC50, HIV-RT catalysed incorporation of [3H]dCTP / polyrI.dC, substrate [3H]dCTP, template/primer poly rI.oligo dC
[5] = IC50, HIV-RT catalysed incorporation of [3H]dTTP / polyrA.dT, substrate [3H]dTTP, template/primer poly rA.oligo dT
[6] = substrate [3H]dATP, template/primer poly rU.oligo dA, read-out: IC50, HIV-RT catalysed incorporation of [3H]dATP / polyrU.dA (converted)
[7] = substrate [3H]dCTP, template/primer poly rI.oligo dC, read-out: IC50, HIV-RT catalysed incorporation of [3H]dCTP / polyrI.dC (converted)
[8] = substrate [3H]dTTP, template/primer poly rA.oligo dT, read-out: IC50, HIV-RT catalysed incorporation of [3H]dTTP / polyrA.dT (converted)

| SMILES | IC50 [2, 6] [µM] | IC50 [2, 7] [µM] | IC50 [2, 8] [µM] | melting point [°C] | other results |
| --- | --- | --- | --- | --- | --- |
| COC(=O)C(O[C@H]1C=C[C@@H](n2ccc(N)nc2=O)C1)P(=O)(OC)OC (relative stereo) [Compound 24c, cis-1-{4-[(Methoxycarbonyl)dimethylphosphonomethoxy]cyclopent-2-en-1-yl}cytosine] | – | – | – | – | stability in deuterated chloroform ([1]; 36 hours at room temperature): Significant decomposition |
| COC(=O)C(O[C@H]1CC[C@@H](n2ccc(N)nc2=O)C1)P(=O)(OC)OC (relative stereo) [Compound 26c, cis-1-{4-[(Methoxycarbonyl)dimethylphosphonomethoxy]cyclopentan-1-yl}cytosine] | – | – | – | – | stability in deuterated chloroform ([1]; 16 hours at room temperature): Significant decomposition |
| Nc1ncnc2c1ncn2[C@@H]1CC[C@H](OC(C(=O)O)P(=O)(O)O)C1 (relative stereo) [Compound 11d, cis-9-{4-[Carboxy(phosphono)methoxy]cyclopentan-1-yl}adenine] | – | – | – | – | degradation of stored sample ([1]; sample checked after 1 year): ~10%; IC50 [2, 3]: 0.274 µM; IC50 [2, 4]: > 560 µM; IC50 [2, 5]: ≥ 560 µM; inhibition of incorporation of [3H]dATP in poly rU/oligo dA [2]: potent inhibitor |
| COC(=O)C(O[C@H]1CC[C@@H](n2cnc3nc(N)nc(Cl)c32)C1)P(=O)(OC)OC (relative stereo) [Compound N-7-26e, cis-2-Amino-7-{4-[(methoxycarbonyl)dimethylphosphonornethoxy]cyclopentan-1-yl}-6-chloropurine] | – | – | – | – | stability in solution ([1]; within 4 days in solution): significant decomposition |
| Nc1ncnc2c1ncn2[C@H]1CC[C@@H](OC(C(=O)O)P(=O)(O)O)C1 (single isomer, unassigned; (+)) [(+)-11d] | 33.6 | > 560 | 487 | – | – |
| O=C(O)C(O[C@H]1CC[C@@H](n2ccc(=O)[nH]c2=O)C1)P(=O)(O)O (relative stereo) [Compound 11b, cis-1-{4-[Carboxy(phosphono)methoxy]cyclopentan-1-yl}uracil] | 221 | > 598 | 3.89 | – | inhibition of incorporation of [3H]dATP in poly rU/oligo dA [2]: no marked, if any inhibition; inhibition of incorporation of [3H]dCTP in poly rI/oligo dC [2]: no marked, if any inhibition |
| Nc1ncnc2c1ncn2[C@H]1CC[C@@H](OC(C(=O)O)P(=O)(O)O)C1 (single isomer, unassigned; (+)) (as salt: ammonium) [(+)-11d] | – | – | – | 234 to 239 | – |
| O=C(O)C(OC1CCC(n2cc(F)c(=O)[nH]c2=O)C1)P(=O)(O)O (stereo not drawn) (as salt: ammonium) [Compound 41, 2-((3-(5-fluoro-2,4-dioxo-3,4-dihydropyrimidin-1(2H)-yl)cyclopentyl)oxy)-2-phosphonoacetic acid] | – | – | – | 243 | – |
| O=C(O)C(O[C@@H]1CC[C@H](n2ccc(=O)[nH]c2=O)C1)P(=O)(O)O (single isomer, unassigned; (+)) [(+)-11b] | 168 | > 598 | 120 | – | – |
| Nc1ccn([C@H]2CC[C@@H](COP(=O)(O)OP(=O)(O)OP(=O)(O)O)O2)c(=O)n1 [ddCTP, reference compound] | – | – | – | – | IC50, HIV-RT catalysed incorporation of [3H]dCTP / polyrI.dC ([2]; substrate [3H]dCTP, template/primer poly rI.oligo dC): 5.0 ± 0.4 µg/mL |
| Cc1cn([C@H]2CC[C@@H](OC(C(=O)O)P(=O)(O)O)C2)c(=O)[nH]c1=O (single isomer, unassigned; (+)) (as salt: ammonium) [(+)-11a] | – | – | – | 225 to 227 | – |
| Nc1ncnc2c1ncn2[C@@H]1CC[C@H](OC(C(=O)O)P(=O)(O)O)C1 (single isomer, unassigned; (-)) [(−)-11d] | 0.202 | > 560 | > 560 | – | – |
| Nc1ncnc2c1ncn2[C@@H]1CC[C@H](OC(C(=O)O)P(=O)(O)O)C1 (single isomer, unassigned; (-)) (as salt: ammonium) [(−)-11d] | – | – | – | 237 to 241 | – |
| Cc1cn([C@@H]2CC[C@H](OC(C(=O)O)P(=O)(O)O)C2)c(=O)[nH]c1=O (single isomer, unassigned; (-)) [(−)-11a] | – | – | – | – | IC50 [2, 3]: 167 µM; IC50 [2, 4]: > 574 µM; IC50 [2, 5]: 0.431 µM; inhibition of HIV-1-RT-catalysed incorporation of [3H]dTTP in poly rA/oligo dT [2]: potent inhibitory activity |
| Nc1ccn([C@@H]2CC[C@H](OC(C(=O)O)P(=O)(O)O)C2)c(=O)n1 (single isomer, unassigned; (-)) [(−)-11c] | 51 | 4.5 | 180 | – | inhibition of incorporation of [3H]dCTP in poly rI/oligo dC [2]: strong inhibition |
| Nc1ncnc2c1ncn2[C@H]1CC[C@@H](COP(=O)(O)OP(=O)(O)OP(=O)(O)O)O1 [ddATP, reference compound] | – | – | – | – | IC50, HIV-RT catalysed incorporation of [3H]dATP / polyrU.dA ([2]; substrate [3H]dATP, template/primer poly rU.oligo dA): 0.55 ± 0.09 µg/mL |
| COC(=O)C(O[C@H]1CC[C@@H](n2cc(C)c(=O)[nH]c2=O)C1)P(=O)(OC)OC (single isomer, unassigned; (+)) [(+)26a] | – | – | – | 129 to 130 | – |
| COC(=O)C(O[C@H]1CC[C@@H](n2ccc(=O)[nH]c2=O)C1)P(=O)(OC)OC (relative stereo) [Compound 26b, cis-1-{4-[(methoxycarbonyl)dimethylphosphonomethoxy]cyclopentan-1-yl}uracil] | – | – | – | – | stability on storage at room temperature ([1]; room temperature, extended periods, neat, solid or in solution): no noticeable decomposition; purity by 1H NMR of aged sample ([1]; sample approximately 2 years old, stored at room temperature): 95% |
| Cc1cn([C@@H]2CC[C@H](OC(C(=O)O)P(=O)(O)O)C2)c(=O)[nH]c1=O (relative stereo) (as salt: ammonium) [Compound 11a, cis-1-{4-[Carboxy(phosphono)methoxy]cyclopentan-1-yl}thymine] | – | – | – | 228 to 230 | – |
| Cc1cn([C@H]2C[C@H](N=[N+]=[N-])[C@@H](CO)O2)c(=O)[nH]c1=O [AZT] | – | – | – | – | IC50 anti-HIV-RT activity reported by McClure (HIV-RT): 0.1 µg/mL (≈ 0.374 µM) |
| Nc1ccn([C@@H]2CC[C@H](OC(C(=O)O)P(=O)(O)O)C2)c(=O)n1 (relative stereo) [Compound 11c, cis-1-{4-[Carboxy(phosphono)methoxy]cyclopentan-1-yl}cytosine] | 108 | 4.8 | 231 | > 250 | – |
| Nc1ncnc2c1ncn2[C@@H]1CC[C@H](OC(C(=O)O)P(=O)(O)O)C1 (relative stereo) (as salt: ammonium) [Compound 11d, cis-9-{4-[Carboxy(phosphono)methoxy]cyclopentan-1-yl}adenine] | – | – | – | 236 to 240 | – |
| Cc1cn([C@@H]2CC[C@H](OC(C(=O)O)P(=O)(O)O)C2)c(=O)[nH]c1=O (relative stereo) [Compound 11a, cis-1-{4-[Carboxy(phosphono)methoxy]cyclopentan-1-yl}thymine] | 307 | > 574 | 0.431 | – | inhibition of incorporation of [3H]dATP in poly rU/oligo dA [2]: no marked, if any inhibition; inhibition of incorporation of [3H]dCTP in poly rI/oligo dC [2]: no marked, if any inhibition |
| COC(=O)C(O[C@@H]1CC[C@H](n2cc(C)c(=O)[nH]c2=O)C1)P(=O)(OC)OC (single isomer, unassigned; (-)) [(−)26a] | – | – | – | 133 to 135 | – |
| Nc1ccn([C@H]2CC[C@@H](OC(C(=O)O)P(=O)(O)O)C2)c(=O)n1 (single isomer, unassigned; (+)) [(+)-11c] | 54 | 402 | 23.4 | > 250 | – |
| Cc1cn([C@H]2CC[C@@H](OC(C(=O)O)P(=O)(O)O)C2)c(=O)[nH]c1=O (single isomer, unassigned; (+)) [(+)-11a] | 101 | > 574 | 37.3 | – | – |
| COC(=O)C(O[C@H]1CC[C@@H](n2cc(C)c(=O)[nH]c2=O)C1)P(=O)(OC)OC (relative stereo) [26a] | – | – | – | 130 to 133 | – |
| O=C(O)C(O[C@H]1CC[C@@H](n2ccc(=O)[nH]c2=O)C1)P(=O)(O)O (single isomer, unassigned; (-)) [(−)-11b] | 233 | > 598 | 3.29 | – | inhibition of HIV-1-RT-catalysed incorporation of [3H]dTTP in poly rA/oligo dT [2]: potent inhibitory activity |
| Cc1cn([C@H]2C[C@H](N=[N+]=[N-])[C@@H](COP(=O)(O)OP(=O)(O)OP(=O)(O)O)O2)c(=O)[nH]c1=O [AZT-TP, reference compound] | – | – | – | – | IC50, HIV-RT catalysed incorporation of [3H]dTTP / polyrA.dT ([2]; substrate [3H]dTTP, template/primer poly rA.oligo dT): 0.035 ± 0.016 µg/mL |
| Cc1cn([C@@H]2CC[C@H](OC(C(=O)O)P(=O)(O)O)C2)c(=O)[nH]c1=O (single isomer, unassigned; (-)) (as salt: ammonium) [(−)-11a] | – | – | – | 229 to 230 | – |
